Broadly, the Ki is a dissociation constant, usually derived from enzyme kinetics or from competition with a known ligand. What is called Cmax is the maximum level reached in the sampled fluid or tissue.

Data set [1] in a line: Metabolic stability in liver microsomes. The format is in vitro ADME, human. On the procedure: All incubations were performed in duplicates. Verapamil was used as the positive control. After pre-warming the mixture for 5 min, reactions were initiated by the addition of NADPH (1 mM). Samples (30 μL) were taken at 0, 20, and 60 min, and the reaction was immediately terminated by adding 150 μL acetonitrile containing an analytical internal standard (IS). Samples were centrifuged at 4,000 rpm for 5 min in a centrifuge (5810R, Eppendorf, Germany), and the supernatant was analyzed by LC-MS/MS (Thermo Scientific TSQ Quantum Ultra, United States).
The in vivo clearance values (CLint = CLint, in vitro × (mg protein/g liver weight) × (g liver weight/kg body weight)) of humans were predicted by CLint, in vitro values using physiologically-based scaling factors, hepatic microsomal protein concentrations (48.8 mg protein/g liver), and liver weights (25.7 g/kg body weight). The in vivo hepatic clearance (CLH= (Q × CLint)/(Q + CLint)) was then calculated by using CLint and hepatic blood flow, Q (20.7 mL·min^−1·kg^−1 in humans).

Data set [2] in a line: Pharmacokinetics in beagle dog after oral administration. The format is in vivo. The following applies: deDM, 14 mg/kg, mean, n=3. The source says: (§1) Results expressed as mean, n=3 per group
In the next data set the test system is C57BL/6J mice. Description: Ammonia-induced cough mouse model. The format is in vivo. The following applies: oral; for cough inhibition rate: 0.5 h post-administration. On the procedure:
Antitussive effects were investigated using a classical mouse cough model induced by ammonia liquor, with some modifications ([Jiang et al., 2014]; [Adejayan et al., 2019]). An ammonia-induced cough model in male C57BL/6J mice was used to evaluate the antitussive effects using a two-step approach. The initial screening phase aimed to identify the mice with consistent and pronounced cough responses. Individual mice were exposed to 0.2 mL of 13% ammonium hydroxide solution in 500 mL glass vials. A trained observer measured the latency period and recorded the number of coughs over a 3-min period post-exposure. […] Following a 24-h recovery period, 70 eligible mice were randomly allocated to seven treatment groups (n = 10 per group) for the compound evaluation phase. […] All compounds were administered orally at a volume of 10 mL/kg. At 0.5 h post-administration, each mouse was re-exposed to 0.2 mL of 13% ammonia in a 500 mL glass jar for 1 min. Subsequently, the trained observer recorded the number of coughs over a 3-min period following removal from the jar. […] All experimental procedures were conducted in strict compliance with guidelines approved by the Institutional Animal Care and Use Committee of Shenzhen Salubris Pharmaceuticals Co., Ltd., ensuring adherence to ethical standards in animal research. A P value of less than 0.05 was considered statistically significant for comparisons between groups.

The next data set has as its target NMDA receptor. The following applies: read-out: Ki, NMDA receptor; 3H-MK801 competition, rat brain membranes, mean, n = 4. On the procedure:
Membrane preparation was performed as previously described ([Werling et al., 2007]). Briefly, the brains of male Sprague-Dawley rats were dissected for tissue collection. The tissue was then homogenized in ice-cold extraction solution and centrifuged at 40,000 × g for 10 min (minute). The supernatant was discarded, the precipitate was resuspended in extraction solution, and the above steps were repeated two times. Finally, the precipitate was resuspended in a 10-fold volume of resuspension solution and stored at −80°C. Protein concentration was determined using a PierceTM BCA Protein Assay Kit. The competitive binding of the compound and ^3H-MK801 to the NMDA receptor was evaluated utilizing the filtration binding method. This method involves washing unbound radioligands and subsequently quantifying the signal values of the radioligands bound to the NMDA receptor using a Microbeta instrument (catalog number: 2450, Perkin Elmer, Massachusetts, United States).

A further data set concerns ICR mice. Put plainly: Forced swim test. The format is in vivo. The following applies: FST, oral, 1 h after administration, deDM 10 and 18 mg/kg, BUP 50 mg/kg, deDM + BUP 10 + 50 and 18 + 50 mg/kg. On the procedure: The mouse forced swim test was performed in a way similar to that published previously by Nguyen et al. ([Nguyen et al., 2017]) with some modifications. […] All compounds were administered orally via gavage at a volume of 10 mL/kg body weight, with the vehicle group receiving an equivalent volume of saline. 1 h after administration, mice underwent the forced swim test (FST), a widely used behavioral assay for evaluating antidepressant-like effects. Each mouse was individually placed in a transparent cylindrical tank filled with water (depth: 18 cm, temperature: 25°C ± 1°C) for a 6-min test session. The initial 2 min served as the acclimatization period and was not scored. Floating time during the subsequent 4 min was measured using ANY-Maze Version 4.63 video tracking software (Stoelting Co., Illinois, United States). Floating was defined as the minimum movement required to keep the animal’s head above water. Floating time (%) = floatting time(s)/240 s. The ANY-Maze software parameters were set as follows: acclimatization period = 120 s, test duration = 240 s, minimum immobility time = 2 s, and immobility sensitivity = 75%. To maintain consistent conditions, water was changed between the animals. […]

Data set [3] is described as follows: Pharmacokinetics in male SD rat after oral administration. The note with it: DM or deDM, male SD rat, oral, 50 mg/kg, mean, n=3. Type of data set: in vivo.
From the text: as §1

Data set [4] can be described thus: Pharmacokinetic study in C57BL/6 mice. Type of data set: in vivo. The following applies: plasma DM or deDM, C57BL/6 mice, oral, 20 mg/kg, mean ± SD. The source says: The assay was built in a way similar to that previously published by [Beconi et al. (2011)] with some modifications. A total of 36 male C57BL/6 mice, weighing between 20 and 22 g, were randomly divided into four groups of nine mice each. […] Mice in each group were numbered 1–9. Following the oral administration of the compounds in each group, blood was collected from the jugular vein at the specified time points, with three mice at each time point and two to three times for each mouse. 1–3 numbered mice had blood collection time points of 0.25, 1.5, and 7 h after the administration of the compounds, 4–6 numbered mice had blood collection time points of 0.5, 2, and 24 h after the administration of the compounds, and 7–9 numbered mice had blood collection time points of 1 and 5 h after the administration of the compounds. All blood samples were collected without anesthesia, and blood was collected in heparinized EP tubes. Plasma was obtained by centrifuging the blood at 10,000 rpm for 2 min at 4°C.

As for deuterated dextromethorphan [deDM], the T1/2 in data set [1] (1 μM, 0.5 mg/mL human liver microsomes, NADPH 1 mM, 37°C, mean, n = 2) came to 2.265 h. Also, the “CLint, in vitro” value in data set [1] (human liver microsomes, calculated from t1/2, mean, n = 2) was 12.8 mL/min/kg. Further, in data set [1] (in vivo hepatic clearance predicted from CLint and hepatic blood flow 20.7 mL/min/kg, human), the CLH is recorded as 7.9 mL/min/kg. Moreover, in data set [2] (female beagle dog), the “AUC0-last (♀)” value came out at 153 ng·h/mL and the “Cmax (♀)” value was 60 ng/mL. In data set [2] (male beagle dog), the “AUC0-last (♂)” value was 383 ng·h/mL and the “Cmax (♂)” value was found to be 157 ng/mL. Besides, the “cough inhibition compared with the vehicle group” value in the data set with C57BL/6J mice (deDM 5 and 10 mg/kg, BUP 40 mg/kg, deDM + BUP 5 + 40 and 10 + 40 mg/kg) is listed as “neither deDM nor BUP significantly inhibited cough”. Further, the cough inhibition rate in the data set on C57BL/6J mice (high dose 10 mg/kg) was 9.1%. This substance had a cough inhibition rate with C57BL/6J mice (low dose 5 mg/kg) of 8.3%. For the same substance, the Ki at NMDA receptor amounted to 1900 nM. Moreover, in the data set on ICR mice, the “floating time compared to the vehicle group” value is given as “did not significantly reduce the floating time”. Also, in data set [3], the AUC0-last stood at 374 ng·h/mL and the Cmax came out at 84 ng/mL. In data set [4], this substance returned an AUC0-last of 387 ± 163 ng·h/mL and a Cmax of 269 ± 83 ng/mL.

Source of the values: publication PMC11462627, “SAL0114: a novel deuterated dextromethorphan-bupropion combination with improved antidepressant efficacy and safety profile” (Frontiers in Pharmacology, 2024).
